Assay results published in US9314020B2, “Microbicidal composition” (Dow Global Technologies LLC, priority 2012, dated 2016).

Legend:
[1] = tested on: Desulfovibrio longus ATCC 51456; assay: Biocidal efficacy against anaerobic bacteria (2 h kill in deoxygenated salt solution); type: cell-based
Experimental: (§1) The synergism of the biocides combination of the present invention was determined using the method described by Kull, F. C, et. al. in Applied Microbiology 9:538-541 (1961).
(§2) The formula to calculate the synergistic index (SI) is Qa/QA+Qb/QB=SI where
(§3) QA=concentration of compound A in ppm, acting alone produced an end point or if end point could not be established, the highest concentration tested will be used as the end point for the calculation and the SI will be recorded in “less than or <” values
(§4) Qa=concentration of compound A in ppm, in the mixture, which produced an end point
(§5) QB=concentration of compound B in ppm, acting alone produced an end point or if end point could not be established, the highest concentration tested will be used as the end point for the calculation and the SI will be recorded in “less than or <” values
Inside an anaerobic chamber (BACTRON anaerobic chamber), a deoxygenated sterile salt solution (3.1183 g of NaCl, 1.3082 mg of NaHCO3, 47.70 mg of KCl, 72.00 mg of CaCl2, 54.49 mg of MgSO4, 172.28 mg of Na2SO4, 43.92 mg of Na2CO3 in 1 L water) was inoculated with Desulfovibrio longus ATCC 51456, a sulfate-reducing bacterium, to a final bacterial concentration of 10^7 to 10^8 CFU/mL. Aliquots of this cell suspension were then treated with DBMAL, DTEA (in the hydrochloride form), and DBMAL/DTEA blends, at selected active concentrations. After the treated cell suspensions were incubated at 35° C. for 2 hours, the biocidal efficacy was determined by minimum tested biocide concentration for 99.999% bacteria kill in the aliquots. Table 1 summarizes the efficacy of each biocide and their blends, and the Synergy Index (SI) of each combination.
(§6) In order to differentiate DBMAL/DTEA combinations from DTEA/DBNPA combinations, DTEA/DBNPA combinations were also tested using the same test procedures and conditions described above.

[2] = tested on: Pseudomonas aeruginosa ATCC 10145, Aeromonas hydrophila ATCC 7965, and Myroides odoratus (Flavobacterium odoratum) NCIMB 13294; assay: Efficacy against aerobic bacteria in synthetic cooling water (4 h kill, TSB/Resazurin readout); type: cell-based; settings: for Concentration (ppm a.i.) for complete bacterial kill in 4 hours: DBMAL: DBMAL alone or DBMAL part of DTEA/DBMAL blend; for Concentration (ppm a.i.) for complete bacterial kill in 4 hours: DBNPA: DBNPA alone or DBNPA part of DTEA/DBNPA blend
Experimental: as §1, §2, §3, §4, §5
Synthetic cooling water was generated as disclosed in Appendix A and dispensed into three 96-well plates. A stock solution of DBMAL from 12% liquid active (or DBNPA from a solid formulation as appropriate) and a stock solution of DTEA (in the hydrochloride form) derived from a liquid stock stored under anaerobic conditions were generated in the synthetic cooling water. In one 96-well biocide block, the stock solution of DBMAL (or DBNPA as listed) was added to the first row of the master block and diluted 1:1 by row until the testing range has been prepared. In a second 96-well biocide block, the stock solution of DTEA was added to the first column of the master block and diluted 1:1 by column until the testing range has been prepared. Biocides from each DBMAL row in the DBMAL biocide master block were added to the matching experimental row in a 3rd 96 well plate filled with synthetic cooling water. This was repeated, adding biocides from each DTEA column from the DTEA biocide master block to the matching experimental column Working quickly, the following organisms were added from a cell-suspension with an OD600 of ˜0.4 (approximately 1×10^8 cfu/ml) to final concentration of 1×10^7 cfu/ml in the first of the 96 well plates: Pseudomonas aeruginosa ATCC 10145, Aeromonas hydrophila ATCC 7965, and Myroides odoratus (Flavobacterium odoratum) NCIMB 13294. The resulting bacterial final concentration was 3×10^7 cfu/ml in the experimental 96 well block.
The experimental block was placed at 35° C., with the time of exposure started once the last well had been inoculated. At 4 hours, the experimental block was removed from the incubator, and 20 μl of treated cells from each row of the experimental block and were added to the first row of a 96-well plate pre-filled with TSB/Resazurin dye. Each sample from the first row of the TSB/Resazurin dye plate was diluted 1:10 six times by serial dilution moving down the plate by row. The inoculated TSB/Resazurin dye 96-well plate was placed at 35° C. for 24 hours, following that time data interpretation occurred. Color change from purple to pink indicates microbial metabolic activity and designates lack of cell death. Those wells were counted as “growth”. Failure to have color change from purple to pink indicates a lack of microbial metabolic activity and designates cell death. These were counted as “no growth”. […] The efficacy and synergy index of each combo were also included.
as §6

NC(=O)C(Br)(Br)C(N)=O [DBMAL alone, 2,2-dibromomalonamide]
Concentration (ppm a.i.) for more than 99.999% bacterial kill in 2 hours: DBMAL ([1]; DBMAL alone or DBMAL part of DTEA/DBMAL blend, 35° C., 2 hours, Table 1): 100.00 ppm a.i.
Concentration (ppm a.i.) for complete bacterial kill in 4 hours: DBMAL ([2]; experiment 1): 25.00 ppm a.i.
Concentration (ppm a.i.) for complete bacterial kill in 4 hours: DBMAL ([2]; experiment 2): 25.00 ppm a.i.
Concentration (ppm a.i.) for complete bacterial kill in 4 hours: DBMAL ([2]; experiment 3): 25.00 ppm a.i.
Concentration (ppm a.i.) for complete bacterial kill in 4 hours: DBMAL ([2]; experiment 4): 50.00 ppm a.i.
Synergy Index ([2]; DTEA/DBMAL blends, experiment 3): 1.00

N#CC(Br)(Br)C(N)=O [DBNPA alone]
Concentration (ppm a.i.) for more than 99.999% bacterial kill in 2 hours: DBNPA ([1]; DBNPA alone or DBNPA part of DTEA/DBNPA blend, Table 6): 25.00 ppm a.i.
Concentration (ppm a.i.) for complete bacterial kill in 4 hours: DBNPA ([2]; experiment 5): 6.25 ppm a.i.
Concentration (ppm a.i.) for complete bacterial kill in 4 hours: DBNPA ([2]; experiment 6): 6.25 ppm a.i.
Concentration (ppm a.i.) for complete bacterial kill in 4 hours: DBNPA ([2]; experiment 7): 6.25 ppm a.i.

CCCCCCCCCCSCCN.Cl [DTEA alone, 2-(decylthio)ethanamine hydrochloride]
Concentration (ppm a.i.) for more than 99.999% bacterial kill in 2 hours: DTEA ([1]; DTEA alone or DTEA part of DTEA/DBMAL blend, 35° C., 2 hours, Table 1): 25.00 ppm a.i.
Concentration (ppm a.i.) for more than 99.999% bacterial kill in 2 hours: DTEA ([1]; DTEA alone or DTEA part of DTEA/DBNPA blend, Table 6): 25.00 ppm a.i.
Concentration (ppm a.i.) for complete bacterial kill in 4 hours: DTEA ([2]; DTEA alone or DTEA part of DTEA/DBMAL blend, experiment 1): 12.50 ppm a.i.
Concentration (ppm a.i.) for complete bacterial kill in 4 hours: DTEA ([2]; DTEA alone or DTEA part of DTEA/DBMAL blend, experiment 2): 25.00 ppm a.i.
Concentration (ppm a.i.) for complete bacterial kill in 4 hours: DTEA ([2]; DTEA alone or DTEA part of DTEA/DBMAL blend, experiment 3): 25.00 ppm a.i.
Concentration (ppm a.i.) for complete bacterial kill in 4 hours: DTEA ([2]; DTEA alone or DTEA part of DTEA/DBMAL blend, experiment 4): 100.00 ppm a.i.
Concentration (ppm a.i.) for complete bacterial kill in 4 hours: DTEA ([2]; DTEA alone or DTEA part of DTEA/DBNPA blend, experiment 5): 50.00 ppm a.i.
Concentration (ppm a.i.) for complete bacterial kill in 4 hours: DTEA ([2]; DTEA alone or DTEA part of DTEA/DBNPA blend, experiment 6): 100.00 ppm a.i.
Concentration (ppm a.i.) for complete bacterial kill in 4 hours: DTEA ([2]; DTEA alone or DTEA part of DTEA/DBNPA blend, experiment 7): 50.00 ppm a.i.
